Experimental data taken from article PMC6030563, “Type 2 NADH Dehydrogenase Is the Only Point of Entry for Electrons into the Streptococcus agalactiae Respiratory Chain and Is a Potential Drug Target” (mBio, 2018).

Columns and labels:
[1] = test system: S. agalactiae cells; assay: Inhibition of cell growth overnight under respiration permissive conditions (GI50); type: cell-based, Streptococcus agalactiae; conditions: for GI50: Streptococcus agalactiae, overnight growth, respiration permissive conditions, read-out: GI50 (concentration that causes 50% inhibition of cell growth); for effect on cell growth: whole cells growing under respiration permissive conditions
[2] = molecular target: T1, S. agalactiae NDH-2 (Streptococcus agalactiae, UniProt Q8E3H1); assay: Inhibition of isolated NDH-2 NADH:quinone oxidoreductase activity (FDA-approved drug library screen and IC50); conditions: for inhibition at 25 µM: read-out: inhibition of enzymatic activity
[3] = molecular target: T1, S. agalactiae NDH-2; assay: NDH-2 enzyme activity and kinetic parameters with NADH and soluble quinone analogues; type: biochemical
Protocol: The rate of NADH oxidation was determined using a UV-Vis spectrophotometer (Agilent Technologies model 8453) by monitoring absorbance at 340 nm (NADH oxidation) upon addition of 100 µM NADH in the presence of 2 nM enzyme and a 100 µM concentration of a quinone soluble analogue. Assays were performed at 37°C in buffer B (50 mM sodium phosphate buffer [pH 7], 150 mM NaCl) plus 125 µg ml^−1 of soy asolectin (Sigma) and 20 µM FAD. For determination of kinetic constants, 2 to 200 µM NADH and 2 to 200 µM of DMN were added to the reaction mixture containing 2 nM enzyme. Enzyme rates are expressed as a turnover number (kcat) based on moles of NADH oxidized per second per mole of enzyme.

[4] = test system: S. agalactiae Δnox2 strain; assay: Overnight growth and oxygen consumption of the Δnox2 strain with zafirlukast
[5] = test system: M. tuberculosis; set-up: method as in PMID 23439641; conditions: cited from earlier work
[6] = test system: S. agalactiae WT cells; conditions: Streptococcus agalactiae, read-out: inhibition of respiration (oxygen consumption)
[7] = test system: Porphyromonas gingivalis; set-up: method as in PMID 28087617; conditions: cited from earlier work
[8] = test system: Streptococcus mutans; set-up: method as in PMID 28087617; conditions: cited from earlier work
[9] = test system: S. aureus NdhC; set-up: method as in PMID 24709059; conditions: cited from earlier work

T1 sequence (Q8E3H1 2-402 limits assumed): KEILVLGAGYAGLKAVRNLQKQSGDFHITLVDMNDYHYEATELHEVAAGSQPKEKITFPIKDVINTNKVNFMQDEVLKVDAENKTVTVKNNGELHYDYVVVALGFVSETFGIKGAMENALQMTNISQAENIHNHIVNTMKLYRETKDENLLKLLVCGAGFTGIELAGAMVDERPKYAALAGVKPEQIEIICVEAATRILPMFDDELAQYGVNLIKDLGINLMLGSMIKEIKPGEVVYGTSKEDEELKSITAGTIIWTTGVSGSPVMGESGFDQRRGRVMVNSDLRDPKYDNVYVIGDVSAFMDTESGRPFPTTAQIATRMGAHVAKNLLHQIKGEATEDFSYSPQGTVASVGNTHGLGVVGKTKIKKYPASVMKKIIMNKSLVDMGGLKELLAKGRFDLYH

SMILES | GI50 [1] [µM] | IC50 [2] [µM] | inhibition at 25 µM [2] [%] | other results
CCCCC(CC)CNC(=N)NC(=N)NCCCCCCNC(=N)NC(=N)NCC(CC)CCCC (stereo not shown) [Alexidine] | 2.7 ± 0.51 | 16.8 ± 1.26 | ≥ 80 | 
CC[C@H](C)C[C@H](C)CCCCCCCCC(=O)N[C@H]1C[C@@H](O)[C@@H](NCCN)NC(=O)[C@@H]2[C@@H](O)CCN2C(=O)[C@H]([C@H](O)CCN)NC(=O)[C@H]([C@H](O)[C@@H](O)c2ccc(O)cc2)NC(=O)[C@@H]2C[C@@H](O)CN2C(=O)[C@H]([C@@H](C)O)NC1=O [Caspofungin] | 41 ± 2.62 | 15.2 ± 2.33 | ≥ 80 | 
Cc1cc(C(C#N)c2ccc(Cl)cc2)c(Cl)cc1NC(=O)c1cc(I)cc(I)c1O (stereo not shown) [Closantel] | 0.25 ± 0.04 | 5.34 ± 0.65 | ≥ 80 | 
CC1=C(C)C(=O)c2ccccc2C1=O [DMN, 2,3-dimethyl-1,4-naphthoquinone] |  |  |  | turnover number ([3]; with DMN as electron acceptor): about 800 NADH/s^−1
NC(=O)C1=CN([C@@H]2O[C@H](COP(=O)(O)OP(=O)(O)OC[C@H]3O[C@@H](n4cnc5c(N)ncnc54)[C@H](O)[C@@H]3O)[C@@H](O)[C@H]2O)C=CC1 [NADH] |  |  |  | Km ([3]; 2 nM enzyme, 2 to 200 µM NADH and DMN, 37°C, pH 7, read-out: Km for the enzyme's substrates): 11 µM
COC1=C(OC)C(=O)C(CC=C(C)C)=C(C)C1=O [Q1, ubiquinone-1] |  |  |  | enzyme activity corresponding to 100% (NADH oxidation) ([3]; 100 µM quinone analogue, 100 µM NADH, Fig. 2C): 4,190 NADH s^−1
CSc1nc2cc(Cl)c(Oc3cccc(Cl)c3Cl)cc2[nH]1 [Triclabendazole] | 15.3 ± 1.92 | 0.14 ± 0.02 | ≥ 80 | 
COc1cc(C(=O)NS(=O)(=O)c2ccccc2C)ccc1Cc1cn(C)c2ccc(NC(=O)OC3CCCC3)cc12 [Zafirlukast] | 6.07 ± 0.1 | 0.83 ± 0.07 | ≥ 80 | growth under respiration permissive compared to nonpermissive conditions ([4]; Δnox2 strain grown overnight with 7.5 µM zafirlukast (~GI50)): does not exhibit enhanced growth; oxygen utilization compared to cells grown in the absence of zafirlukast ([4]; Δnox2 strain grown overnight with 7.5 µM zafirlukast, respiration permissive): substantially lower; activity against M. tuberculosis [5]: bactericidal activity; inhibition at 7.5 µM [6]: 90%; activity against Porphyromonas gingivalis [7]: antibacterial and antibiofilm activity; activity against Streptococcus mutans [8]: antibacterial and antibiofilm activity
CCOc1nc2cccc(C(=O)O)c2n1Cc1ccc(-c2ccccc2-c2nnn[nH]2)cc1 [candesartan] |  |  | ≥ 80 | effect on cell growth [1]: no effect on cell growth
Oc1c(Cl)cc(Cl)c(Cl)c1Cc1c(O)c(Cl)cc(Cl)c1Cl [hexachlorophene] |  |  |  | inhibition of enzymatic activity ([2]; 25 µM each compound, pure enzyme, NADH and menadione): at least 80%
O=c1c(O[C@@H]2O[C@H](CO)[C@@H](O)[C@H](O)[C@H]2O)c(-c2ccc(O)c(O)c2)oc2cc(O)cc(O)c12 [isoquercetin] |  |  | ≥ 80 | effect on cell growth [1]: no effect on cell growth
CCCCOc1ccc(OCCCN2CCOCC2)cc1 [pramoxine] |  |  | ≥ 80 | effect on cell growth [1]: no effect on cell growth
CSc1ccc2c(c1)N(CCC1CCCCN1C)c1ccccc1S2 (stereo not shown) [thioridazine] |  |  |  | inhibitory effect on S. aureus NdhC [9]: strong inhibitory effect
CN1CCN(CCCN2c3ccccc3Sc3ccc(C(F)(F)F)cc32)CC1 [trifluoperazine] |  |  |  | inhibitory effect on S. aureus NdhC [9]: strong inhibitory effect; inhibition of S. agalactiae NDH-2 [2]: not inhibited
